Measurements: PMC11374673, “Discovery of isoquinoline sulfonamides as allosteric gyrase inhibitors with activity against fluoroquinolone-resistant bacteria” (Nature Chemistry, 2024)
Converted amounts (≈) assume the structure as drawn. Where two headings read alike, the source gives them in different places.

What was measured:
[1] = test system: K. pneumoniae ATCC 29665; assay: MIC by broth microdilution; format: cell-based, Klebsiella pneumoniae; details: Klebsiella pneumoniae, ATCC29665, broth microdilution; read-out: MIC K. pneumoniae ATCC 29665
In short: (§1)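 Broth microdilution in CAMHB: twofold compound series inoculated with 100-fold-diluted bacteria from exponential growth (OD600 0.5, 37 °C); kanamycin 50 µg ml^−1 added for Keio collection strains. Overnight incubation, 37 °C, 600 r.p.m. shaking.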

[2] = test system: clinical isolates of E. coli; assay: MIC against clinical isolates and potentiation by 4 µM PMBN; format: cell-based, Escherichia coli; details: for MSC: with 4 µM PMBN; for MIC: Escherichia coli
Protocol: (§2) MIC was determined by broth microdilution. Single-colony cultures were grown to exponential phase (OD600 of 0.5) aerobically at 37 °C. In case of strains from the Keio collection, 50 µg ml^−1 kanamycin was supplemented to the media to ascertain a homogeneous population. The bacterial suspensions were diluted 100-fold in CAMHB and 50 µl was added to a twofold serial dilution series of test compounds (50 µl per well) in polypropylene 96-well microtitre plates to reach a volume of 100 µl. The plates were sealed with breathable membranes and incubated overnight at 37 °C with constant shaking (600 r.p.m.).

[3] = test system: E. coli BW25113 and single-gene knockouts; assay: MIC on E. coli strains of the Keio collection; format: cell-based, Escherichia coli; details: Escherichia coli, BW25113, read-out: MIC E. coli BW25113, parent strain
Protocol: as §2, with “r.p.m.). The MIC was determined as the lowest concentration at which no visible bacterial growth was observed as compared with the inoculum controls from the median of a minimum of triplicates.” for “r.p.m.).”

[4] = test system: E. coli W3110 gyrA S97L, S83L, D87N; assay: MIC against CRISPR/Cas9 gyrA point mutants; format: cell-based, Escherichia coli; details: for MIC: Escherichia coli
Protocol: as §2, with “r.p.m.). The MIC was determined as the lowest concentration at which no visible bacterial growth was observed as compared with the inoculum controls from the median of a minimum of triplicates.” for “r.p.m.).”
Mutants of the DNA gyrase subunit A encoding gene (gyrA) were constructed following the protocol for gene editing via the CRISPR–Cas9 system. Strains and plasmids used are listed in Supplementary Table 15, and primers used can be found in Supplementary Table 16. The following mutations were created: S97L in E. coli W3110. Two common mutations in the gyrA gene that give resistance to fluoroquinolone antibiotics were created in E. coli W3110, namely S83L and D87N. To create the gyrA (S97L) mutants, the construct psgRNA-gyrA-M5 was assembled as follows: The 20-nt spacer sequence was introduced by PCR on pTargetF using primers gyrA_P11 and gyrA_P12, the homology-directed repair (HDR) arms were amplified from E. coli W3110 genomic DNA by PCR using primer pairs gyrA_P05 and gyrA_P013, and gyrA_P08 and gyrA_P14. The three PCR fragments generated were cloned into the SpeI and BglII digested pTargetF via Gibson assembly. To avoid off-target effects of CRISPR, besides desired point mutation for gyrA (S97L), four other silent point mutations were also included in the HDR template. Consequently, the amino acid sequence of gyrA will remain the same in the generated mutant except for the desired mutation. Similarly, constructs psgRNA-gyrA-S83L and psgRNA-gyrA-D87N were created to introduce mutations S83L and D87N in gyrA, respectively. In psgRNA-gyrA-S83L, spacer sequence was introduced using primers gyrA_P12 and gyrA_P17, HDR template was amplified using primer pairs gyrA_P05 and gyrA_P18, and gyrA_P08 and gyrA_P19. In psgRNA-gyrA-D87N, spacer sequence was introduced using primers gyrA_P12 and gyrA_P20, HDR template was amplified using primer pairs gyrA_P05 and gyrA_P21, and gyrA_P08 and gyrA_P22. The verified constructs for gyrA engineering were transformed into E. coli W3110 carrying pCas9, and plated in LB containing kanamycin (50 µg ml^−1) for the selection of the pCas9 plasmid and spectinomycin (100 µg ml^−1) for the selection of psgRNA-gyrA-X. The plates were incubated at 30 °C. Plasmids were cured by growing the strains with 0.5 mM isopropylthiogalactoside with no antibiotics to lose first the psgRNA-gyrA plasmids. After losing the spectinomycin resistance, the strain was grown in LB with no antibiotics at 42 °C to lose the pCas plasmid. Colony PCR was performed on plasmid-free colonies using primers gyrA_P9 and gyrA_P10, and PCR products were sequenced to confirm the desired mutation

[5] = test system: E. coli W3110; assay: MIC by broth microdilution; format: cell-based, Escherichia coli; details: Escherichia coli, W3110, WT, broth microdilution; read-out: MIC E. coli W3110
In short: as §1

[6] = test system: E. coli ATCC 25922; assay: MIC by broth microdilution; format: cell-based; details: Escherichia coli, ATCC25922; read-out: MIC E. coli ATCC 25922
Protocol: as §2

[7] = test system: S. aureus ATCC 29213 / ATCC BAA1717; assay: MIC by broth microdilution; format: cell-based; details: Staphylococcus aureus
In short: (§3)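 Broth microdilution in CAMHB with twofold compound series; exponential-phase cultures (OD600 0.5) diluted 100-fold as inoculum, Keio strains pre-grown with 50 µg ml^−1 kanamycin. Overnight incubation at 37 °C, shaking 600 r.p.m. MIC is lowest concentration without visible growth, median of at least triplicates.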

[8] = test system: P. aeruginosa ATCC 27853; assay: MIC by broth microdilution; format: cell-based; details: Pseudomonas aeruginosa, ATCC27853; read-out: MIC P. aeruginosa ATCC 27853
In short: as §3

[9] = test system: 60-resistant (60-r) isolates of E. coli W3110; assay: microbe, parasite or virus in culture; format: cell-based, Escherichia coli; details: Escherichia coli
Protocol: as §2, with “r.p.m.). The MIC was determined as the lowest concentration at which no visible bacterial growth was observed as compared with the inoculum controls from the median of a minimum of triplicates.” for “r.p.m.).”
The plates were incubated at 37 °C and checked for growth after 24 and 48 h. […] Nine colonies with an increased MIC were selected for further analysis and stored as glycerol stocks.

O=S(=O)(NC[C@@H]1CC[C@H](c2ccc(-c3ccc(F)cc3)cc2)N1)c1cccc2cnccc12 [Compound 101]
MIC [1]: 3.1 µM (≈ 1.43 µg/mL) | FC ([2]; E. coli 1075, fold change in MIC after 4 µM PMBN): 8 | MSC ([2]; E. coli 1075): 6.25 µM | FC ([2]; E. coli 552059.1, fold change in MIC after 4 µM PMBN): 16 | MSC ([2]; E. coli 552059.1): 0.8 µM | FC ([2]; E. coli 552060.1, fold change in MIC after 4 µM PMBN): 16 | MSC ([2]; E. coli 552060.1): 0.8 µM | FC ([2]; E. coli MVAST0072, fold change in MIC after 4 µM PMBN): 16 | MSC ([2]; E. coli MVAST0072): 0.8 µM | FC ([2]; E. coli NCTC13463, fold change in MIC after 4 µM PMBN): 8 | MSC ([2]; E. coli NCTC13463): 0.4 µM | FC ([2]; E. coli NCTC13846, fold change in MIC after 4 µM PMBN): 4 | MSC ([2]; E. coli NCTC13846): 3.1 µM | FC ([2]; E. coli mcr-1, fold change in MIC after addition of 4 µM PMBN): 4 | MSC ([2]; E. coli mcr-1): 3.1 µM | MIC ([2]; E. coli 1075 (MDR), read-out: MIC): 50 µM | MIC ([2]; E. coli 552059.1, read-out: MIC): 12.5 µM | MIC ([2]; E. coli 552060.1, read-out: MIC): 12.5 µM | MIC ([2]; E. coli MVAST0072 (MDR), read-out: MIC): 12.5 µM | MIC ([2]; NCTC13463, E. coli NCTC13463 (ESBL), read-out: MIC): 3.1 µM | MIC ([2]; NCTC13846, E. coli NCTC13846 (MDR, mcr-1)): 12.5 µM | MIC [3]: 1.6 µM (≈ 0.738 µg/mL) | susceptibility of gyrA S97L mutant ([4]; CRISPR–Cas9 S97L): resistant | MIC ([4]; E. coli W3110 gyrA D87N (FQ-resistant 2)): 3.1 µM (≈ 1.43 µg/mL) | MIC ([4]; E. coli W3110 gyrA S83L (FQ-resistant 1)): 3.1 µM (≈ 1.43 µg/mL) | MIC ([4]; E. coli W3110 gyrA S97L (LEI-800-resistant)): > 50 µM | MIC [5]: 1.6 µM (≈ 0.738 µg/mL) | MIC [6]: 3.1 µM (≈ 1.43 µg/mL) | MIC ([7]; read-out: MIC S. aureus ATCC 29213): > 50 µM | MIC ([7]; read-out: MIC S. aureus ATCC BAA1717): > 50 µM | MIC [8]: > 50 µM | MIC ([9]; E. coli W3110 60-r1): > 50 µM | MIC ([9]; E. coli W3110 60-r3): 6.25 µM (≈ 2.88 µg/mL) | MIC ([9]; E. coli W3110 60-r6): 3.1 µM (≈ 1.43 µg/mL)
